Reference: US11604141B2, “Zinc-selective fluorescent probes for emission-ratiometric imaging” (Georgia Tech Research Corporation, priority 2017, dated 2023)
Where a name gives a salt, the structure may show the parent alone.

What was measured:
[1] = UV-vis absorption spectra in methanol; assay type: physicochemical; details: methanol at 298 K, relative to compound I
Description: FIG. 26: UV-vis absorption spectra of compounds I, […] in methanol at 298 K.
UV-vis Spectral Characterization of Compounds I, II, and III.

[2] = system: labile Zn(II) pools in live NIH 3T3 mouse fibroblasts; assay: Ratiometric TPEM imaging of labile Zn(II) in live cells; assay type: cell-based
Method: FIG. 25A-25B. Ratiometric imaging of labile Zn(II) pools in live NIH 3T3 mouse fibroblasts with chromis-2 by TPEM (excitation at 720 nm). (FIG. 25A) Left: Phase contrast image (DIC) and fluorescence intensity images acquired with 425-462 nm (BP1) and 478-540 nm (BP2) bandpass filters, respectively. Right: Intensity ratio image with R=BP2/BP1. (FIG. 25B) Left: Ratio images (BP2/BP1) prior (at 3 min) and after addition of 50 μM ZnSO4 and 5 μM pyrithione (at 9 min). […] Right: Time course of the average intensity ratio change for the ROI indicated with a white circle in the left panel. The asterisks indicate time points for the respective ratio images shown to the left. Scale bars: 40 μm.
To evaluate the Zn(II)-dependent ratiometric response of chromis-2 within the chemical complexity of a live cell, we performed a perfusion experiment with NIH 3T3 mouse fibroblasts as model system (FIG. 25). To this end, fibroblast cells were cultured in Dulbecco's modified Eagle's medium (DMEM, Lonza) supplemented with 10% bovine serum (Gemini), penicillin/streptomycin (50 IU/mL), 200 μM L-glutamine, and 100 μM sodium pyruvate at 37° C. under an atmosphere of humidified air containing 5% CO2. For imaging experiments, cells were grown to 70% confluency on MatTek glass bottom culture dishes pre-coated with poly-L-lysine using phenol red-free DMEM (10% bovine serum, 50 IU/mL penicillin/streptomycin, 200 μM L-glutamine, and 100 μM sodium pyruvate). After replacing the growth medium with serum-free DMEM containing chromis-2 (10 μM), cells were incubation for 30 minutes at 37° C. (5% CO2 atmosphere), and the incubation solution was again replaced with pre-warmed full media. Cells were imaged in an atmospheric chamber at 37° C., […], and 5% CO2 using a Zeiss LSM confocal NLO 710 microscope equipped with a femtosecond pulsed Ti:sapphire laser. Scanning fluorescence micrographs were acquired with excitation at 720 nm, and the integrated emission intensity was simultaneously collected through two band pass filters between 425-462 nm and 478-540 nm. The corresponding ratio-images were derived with ImageJ based on the integrated photon counts on a pixel-per-pixel basis (FIG. 25A, right). […] Although the fluorescence intensity distribution appears uneven, including distinct punctate localizations, the corresponding ratio-image indicates a rather even fractional saturation with an average ratio R of 0.64±0.2.

[3] = Determination of fluorescence quantum yields (referenced to quinine sulfate); assay type: physicochemical; details: neutral form, 10 mM PIPES, 100 mM KCl, pH 7.0; sodium salt
Method: Determination of Fluorescence Quantum Yields. Fluorescence quantum yields of 1, 2, 3b and chromis-2 (4) were determined in aqueous buffer (10 mM PIPES, 0.1 M KCl) at pH 7.0 by a 4-point measurement over an OD range of 0.1-0.4 using a […], with fluorimeter excitation at 365 nm. For probes 3b and chromis-2, the solutions containing the free forms were supplemented with 20 μM EDTA (from a 30 mM stock solution in diH2O) to sequester adventitious Zn(II), whereas to determine the Zn(II)-bound forms, the solutions were supplemented with 20 μM ZnSO4.7H2O to ensure complete saturation of the fluorophore. Fluorescence quantum yields for all fluorophores were determined using quinine sulfate (Df=0.546 in 1.0 N H2SO4) as a fluorescence standard.^2 To determine the quantum yield of 3a, single-point measurements were performed in aqueous buffer (10 mM PIPES, 0.1 M KCl, pH 7.0) supplemented with 100 μM 4:1 DMPC:DMPG liposomes and at a probe concentration of 2 μM. The quantum yields were also referenced to quinine sulfate with an OD matching that of 3a (2 μM) in liposomes.

[4] = Steady-state absorption and fluorescence spectroscopy, molar ratio titration with Zn(II); assay type: physicochemical
Method: General Spectroscopic Methods. All buffers and stock solutions used for spectroscopic measurements were prepared using either HPLC-grade water (JT Baker) or 18.2 MΩ.cm Mili-Q water and filtered through a 0.2 μm filter to remove interfering dust particles or fibers. UV-Vis measurements were performed on a Varian Cary Bio50 spectrophotometer with a constant temperature accessory (Peltier) at 25° C. Fluorescence measurements were performed with a PTI fluorimeter equipped with a 75 W xenon arc lamp excitation source and a photomultiplier detection system (PMT voltage was 1100 V for all experiments). Fluorescence spectra were corrected for the spectral response of the detection system and for the spectral irradiance of the excitation source (via a calibrated photodiode). For all experiments, both UV-Vis and fluorescence, a 1-cm path length quartz cuvette was used, except for quantum yield determinations, which were performed with a 10-cm path length quartz cuvette for absorbance measurements.
Molar Ratio Titration of Probe 3b with Zn(II). […] After each aliquot, the solution was equilibrated for 30 seconds by magnetic stirring, and an absorbance (spectral window: 250-500 nm) (FIG. 14A) and fluorescence spectrum (excitation: 361 nm, spectral window: 380-700 nm) (FIG. 14B) were acquired.
Molar Ratio Titration of Chromis-2 with Zn(II). […] After each aliquot, the solution was equilibrated for 30 seconds by magnetic stirring, and an absorbance (spectral window: 250-500 nm) and fluorescence spectrum (excitation: 361 nm, spectral window: 380-700 nm) were acquired.

[5] = Fluorescence solvent deuterium-isotope studies (D2O vs H2O buffer); assay type: physicochemical
Method: Fluorescence Deuterium-Isotope Studies of Compounds 1 & 2. Comparison of the fluorescence intensities of compounds 1 and 2 were conducted in deuterated and non-deuterated buffer (10 mM PIPES, 100 mM KCl, pH/D 7.0, 25° C.). A 3.0-mL solution of aqueous buffer was supplemented with 10 μM of each compound (from 3 mM stock solutions in H2O), and after thorough mixing via magnetic stirring, fluorescence spectra of 1 were acquired over the spectral window of 380-700 nm with excitation at […] and analogous fluorescence spectra of 2 were acquired over the spectral window of 380-650 nm with excitation at […].
Fluorescence Comparison of 3b and chromis-2 (4). Fluorescence comparison measurements of 3b and chromis-2 were conducted in deuterated and non-deuterated buffer (10 mM PIPES, 100 mM KCl, pH/D 7.0, 25° C.). A quartz cuvette with a 1-cm path length containing 3.0 mL of aqueous buffer was supplemented with 5 μM 3b (from a 3 mM stock solution in H2O), and after a 30-second equilibration via magnetic stirring, a fluorescence spectrum was acquired over the spectral window of 380-700 nm with excitation at 361 nm. The probe was then saturated with 5 μM ZnSO4.7H2O (from a 3 mM stock solution in H2O), and a fluorescence spectrum was acquired. This was repeated for 3b in deuterated buffer, but with supplementation of 5 μM ZnSO4.7H2O from a 3 mM stock solution in D2O. […]

[6] = Excited-state pKa calculated using the Forster Cycle; assay type: physicochemical; details: calculated with the Forster Cycle
Description: To circumvent the issue of excited-state protonation of the fluorophore, the inventors synthesized a chromis-1 compound 1, whose structure lacked the bis(2-pyridylmethyl)amine chelating moiety but incorporated an O-alkylsulfonate group to enhance water solubility, to determine the unperturbed ground-state pKa of the pyridyl acceptor.

[7] = Spectrophotometric pH titration, determination of protonation constants; assay type: physicochemical; details: aqueous 0.1 M KCl solution, 25° C., fit to a single protonation, read-out: ground-state pKa (pKH1) of the pyridyl acceptor
Method: FIG. 12. Spectrophotometric pH titration of compound 1 at 25° C. in aqueous buffer (5 mM PIPBS, 0.1 M KCl, 5 mM KOH, pH 5.6). Black arrows indicate the change in absorbance after each aliquot of HCl was added. The absorbance from 250-500 nm was recorded as a function of pHe (−log[H3O^+]), and the data were analyzed by non-linear least squares fitting to a single protonation to yield an average pKH1=4.49±0.002 (n=3).
FIG. 13. Spectrophotometric pH titration of compound 2 at 25° C. in 0.1 M KCl. Black arrows indicate the change in absorbance after each aliquot of HCl was added. The absorbance (250-500 nm) was recorded as a function of pHc (−log[H3O^+]), and the data were analyzed by non-linear least squares fitting to a single protonation to yield an average pKH1=2.34±0.002 (n=3).
Protonation constants were determined as concentration constants (log KH) based on potentiometric titrations using a combination double junction glass electrode. […] From the experimental emf data, the endpoint, electrode potential, and slope were determined using Gran's Method as implemented in the GLEE software package (pKw=13.78, μ=0.1 M KCl).^1 The calibration procedure was performed prior to each potentiometric titration, and the experimental electrode potential and slope that were used to calculate the experimental p[H] were derived as the average of the emf data from three independent titrations. […]

[8] = in 1N H2SO4; cited from earlier work
[9] = Neutral, 10 mM PIPES, 100 mM KCl, pH 7.0

| Structure (SMILES) | change of UV-vis absorption spectrum (in words) [1] | ΦF fluorescence quantum yield [3] | Abs λmax [4, 9] [nm] | Em λmax [4, 9] [nm] | ε [4, 9] | Abs λmax ([4]; Protonated, 0.1N HCl (pH 1.0)) [nm] | Em λmax ([4]; Protonated, 0.1N HCl (pH 1.0)) [nm] | ε ([4]; Protonated, 0.1N HCl (pH 1.0)) | pKa [6] | pKa [7] | further results |
| --- | --- | --- | --- | --- | --- | --- | --- | --- | --- | --- | --- |
| COc1ccc(-c2cnc(-c3cccc(CN(Cc4ncccn4)Cc4ncccn4)n3)s2)cc1 [chromis-2] | – | – | – | – | – | – | – | – | – | – | increase of intensity ratio upon ZnSO4 and pyrithione ([2]; NIH 3T3): more than 4 fold; average intensity ratio R (BP2/BP1), initial ([2]; NIH 3T3, 10 μM probe, excitation 720 nm, before additions): 0.64±0.2; intensity ratio R after ZnSO4 and pyrithione ([2]; NIH 3T3, 50 μM ZnSO4 and 5 μM pyrithione): 2.36±0.6; intensity ratio R after TPEN ([2]; NIH 3T3, 100 μM TPEN): 0.55±0.2 |
| O=S(=O)([O-])CCCOc1ccc(-c2cnc(-c3ccncc3)s2)cc1.[Na+] [compound 1, 3-(4-(2-(pyridin-4-yl)thiazol-5-yl)phenoxy)propane-1-sulfonate sodium salt] | – | 0.65 | 346 | 489 | 1.80 10^4 M^−1cm^−1 | 397 | 582 | 1.96 10^4 M^−1cm^−1 | ~11.7 | 4.49 ± 0.002 | increase in fluorescence intensity in D2O relative to H2O ([5]; 10 mM PIPES, 0.1 M KCl, pH/D 7.0, 25° C.): 18% |
| C=C[C@H]1C[N@@]2CC[C@H]1C[C@H]2[C@H](O)c1ccnc2ccc(OC)cc12 [quinine sulfate] | – | – | – | – | – | – | – | – | – | – | ΦF of fluorescence standard [8]: 0.546 |

More lines, main results first:

| change of UV-vis absorption spectrum (in words) [1] | ΦF fluorescence quantum yield [3] | Abs λmax [4, 9] [nm] | Em λmax [4, 9] [nm] | ε [4, 9] | Abs λmax ([4]; Protonated, 0.1N HCl (pH 1.0)) [nm] | Em λmax ([4]; Protonated, 0.1N HCl (pH 1.0)) [nm] | ε ([4]; Protonated, 0.1N HCl (pH 1.0)) | pKa [6] | pKa [7] | Structure (SMILES) | further results |
| --- | --- | --- | --- | --- | --- | --- | --- | --- | --- | --- | --- |
| red-shifted absorption spectrum | – | – | – | – | – | – | – | – | – | COc1ccc(-c2ccc(-c3cnc(-c4ccccn4)s3)s2)cc1 [Compound III] | – |
| red-shifted absorption spectrum | – | – | – | – | – | – | – | – | – | CN(C)c1ccc(-c2cnc(-c3ccccn3)s2)cc1 [Compound II] | – |
| – | 0.80 | 345 | 467 | 2.25 10^4 M^−1cm^−1 | 386 | 565 | 2.05 10^4 M^−1cm^−1 | 9.4 | 2.34 | O=S(=O)([O-])CCCOc1ccc(-c2cnc(-c3ccccn3)s2)cc1.[Na+] [compound 2, 3-(4-(2-(pyridin-2-yl)thiazol-5-yl)phenoxy)propane-1-sulfonate sodium salt] | solvent deuterium isotope effect on emission (in words) ([5]; D2O versus H2O buffers): identical emission profiles; excited-state pKa (pKa*) ([6]; sodium salt): 9.5 |
